From patent publication US20050019288A1, “Alcohol-based aerosol deodorant composition comprising at lease one zinc salicylate or a derivative thereof” (priority 2003, published 2005)

Columns and labels:
Corynebacterium xerosis = assay: Bactericidal activity of a composition on microorganisms involved in underarm odor; format: cell-based; settings: summary in text for the active agent
Method: The test described herein allows a quantitative determination of the bactericidal activity of a composition on microorganisms under optimum growth conditions, i.e., microorganisms of the Corynebacterium xerosis type (Institut Pasteur Collection No. 5216) grown on soybean tryptocasein agar on a slope.
On the day before the test, 32 g of soybean tryptocasein broth were placed in a pill bottle and incubated at 35° C. On the day of the test, 4 g of the test composition were added and the mixture was homogenized using a Vortex mixer.
A product-free growth control was prepared under the same conditions in order to check that the microorganisms were under favorable growth conditions throughout the duration of the test.
For the preparation of the inoculum, five days before the start of the test, the two bacterial strains were subcultured on a suitable medium. Incubation was performed for 5 days at 35° C. On the day of the test, the slope was washed with about 9 ml of diluent: the suspension obtained has a titre of […] (counting was performed). […]
The colonies were counted on the dishes containing more than 20 and less than 200 colonies. […]
The bactericidal activity of each of the formulations 2, 3 and 4 with respect to the strain Corynebacterium xerosis was measured and compared with a formulation without active agent.

[1] = Efficacy test: odor of incubated underarm sweat judged by a panel of experts against control sweat; design: species or system human; settings: 37° C, average of 18 hours and 24 hours, compared with control sweat
Method: Underarm sweat was collected from six volunteers in a sauna, the samples of individual sweat, stored in ice for a few hours, are at that point virtually odorless. They were subsequently mixed together and divided into 1 ml aliquots. The active agents were added to these aliquots, which were then incubated in an oven at 37° C. After these samples were incubated for 18 and 24 hours, a panel of experts evaluated the intensity of the odor compared with a control sample, which was 1 ml of sweat incubated without addition of active agent.
The results are expressed below as a percentage of change in the unpleasantness of the odor compared with this control sweat sample (average of the percentages of change at 18 hours and 24 hours).
The active agents (A) and (B) correspond to zinc salicylate trihydrate from Bernardy Chimie and to the active agent (C) containing Triclosan.

Zinc salicylate
antibacterial activity on the Corynebacterium xerosis strains (Corynebacterium xerosis): low (1 Log of reduction: low)

zinc salicylate trihydrate [(A)]
% change in the unpleasantness of odor ([1]; 1 mg AM/ml of sweat): −45% | % change in the unpleasantness of odor ([1]; 5 mg AM/ml of sweat): −48%

Oc1cc(Cl)ccc1Oc1ccc(Cl)cc1Cl [(C), 2,4,4′-trichloro-2′-hydroxydiphenyl ether, reference compound]
% change in the unpleasantness of odor ([1]; 0.8 mg AM/ml of sweat): −55%
